This is an account of results in article PMC6856805, “Environmental Risk Assessment for the Active Pharmaceutical Ingredient Mycophenolic Acid in European Surface Waters” (Environmental Toxicology and Chemistry, 2019).

SMILES strings stand for the structures. Values after ≈ are worked out from the molar mass of the structure shown. Where two headings read alike, the source gives them in different places. Some results are limits rather than exact numbers.

The subject of one series is daphnid. Particulars: in vivo.
On the set-up of series [1]: method as in Franquet‐Griell et al. (2017a). Particulars: ref Franquet‐Griell et al. (2017a); cited from earlier work.
A short description of series [2]: n-octanol/water distribution coefficient (log DOW), shake-flask method. Format: physicochemical. The source says: (§1) Syntex derived many basic physicochemical properties for both MPM and MPA in the early 1990s. The results for MPA are mostly given in the present study.
The test system of a further series is Cyprinus carpio. Set-up: method as in FASS 2018. Conditions: OECD 203; ref FASS 2018; cited from earlier work.
In the next series the test system is Artemia salina. Set-up: method as in earlier work. Conditions: non‐GLP; ref Ďuračková et al. 1977; cited from earlier work.
A short description of series [3]: Dissociation constant (pKa) by titration. The series is classed as physicochemical. Conditions: 25 ± 2 °C.
Excerpt: as §1

In the next series the test system is Anabaena flos-aquae. In words: microbe, parasite or virus in culture. Format: cell-based. Conditions: 72 h. The source says:
The new chronic ecotoxicity tests with cyanobacteria (D. Gilberg and G. Chambers, ECT Oekotoxikologie, Flörsheim, Germany, on behalf of F.Hoffmann‐La Roche, Basle, Switzerland, unpublished data), daphnids (P. Egeler and J. Chambers, ECT Oekotoxikologie, Flörsheim, Germany, on behalf of F.Hoffmann‐La Roche, Basle, Switzerland, unpublished data), and fish (D. Gilberg and G. Chambers, unpublished data) fulfilled the validity criteria of the respective OECD guidelines (see the Supplemental Data). […] The following endpoints were determined, all relating to GMMC: NOEC (both growth and yield) 83.9 µg MPA/L, LOEC 284 µg/L, ErC10 155 (95% confidence interval [CI] 137–171) µg/L, and ErC50 423 (95% CI 406–441) µg/L (D. Gilberg and G. Chambers, unpublished data).
An OECD 201 algal growth inhibition test was performed by ECT Oekotoxikologie, Flörsheim, Germany, with the cyanobacterian Anabaena flos-aquae with a series of concentrations of MPA in cyanobacteria test medium in different concentrations plus medium-only controls under continuous lighting over 72 h (Gilberg & Chambers 2017). The growth of the algae was measured by calibrated fluorescence intensity of sonicated test solution samples using a fluorometer after 24, 48 and 72 hours. The test concentrations were analysed by HPLC at the start and end of the test.

Series [4] can be described thus: Antibiotic resistance risk quotient (PEC or MEC / PNECABR). Here is the method:
Antibiotic resistance risk is assessed through comparing PECs or MECs with a PNEC for formation or maintenance of antibiotic resistance (PNECABR). There is no universally accepted or regulatory algorithm for deriving a reliable PNECABR for bacteria, so for the time being this is approximated by applying assessment factors to bacterial minimal inhibitory concentrations (MICs). […] To be fully consistent with Bengtsson‐Palme and Larsson's (2016) approach to PNECABR derivation, the authors were contacted for help; they (J. Bengtsson‐Palme, Department of Infectious Diseases, Institute of Biomedicine, The Sahlgrenska Academy, University of Gothenberg, Gothenberg, Sweden, personal communication) state that “we only use species with 10 or more MIC observations, to avoid drawing conclusions from insufficient data […] . The only species with >10 observations in the Noto et al. (1969) paper is S[taphylococcus] aureus. In addition, when the MIC1% are selected, only one MIC [J.O.Straub's italics] value is selected per species (the lowest). Finally, the uncertainty factor for low sampling numbers is calculated as: (observed lowest MIC) × (number of tested species) ÷ 41.” Both these provisional PNECABR values were derived from the MPA MICs; the lower was selected and compared with the PECs and MECs.
This provisional PNECABR of 64 µg MPA/L can now be compared with the PECs for STPs and surface water and with the highest MECs available. […] For surface waters, all PECs including the highest, the Guadalquivir River low‐flow 99th %ile ePiE PEC, were below the PNECABR, and thus all risk quotients were ≤0.194, all refined PEC‐per‐country risk quotients were ≤0.0083, and all mean‐ and low‐flow median ePiE PEC risk quotients were ≤0.00033; finally, the highest MEC risk quotient was 0.0103. Both models and measurements imply that throughout Europe, even in the worst‐case scenario of a southern Mediterranean catchment with extremely low river flow in summer, no significant antibiotic resistance risk emerges for MPA.

Details of series [5]: method as in Wishart et al. 2018; Royal Pharmaceutical Society 2018. Conditions: ref Wishart et al. 2018; Royal Pharmaceutical Society 2018; cited from earlier work.

Consider `COc1c(C)c2c(c(O)c1CC=C(C)CCC(=O)O)C(=O)OC2` [MPA, 6‐(1,3‐dihydro‐4‐hydroxy‐6‐methoxy‐7‐methyl‐3‐oxo‐5‐isobenzofuranyl)‐4‐methyl‐4‐hexenoic acid], for which the “48‐h NOEC” value with daphnid was 440 mg/L. Also, the hydrolytic degradation constant in [1] is 0.0002 min^–1. For the same molecule, the logD in series [2] (pH 5, pH 5, read-out: Log D OW) came out at 2.28. In addition, in series [2] (pH 5, pH 5 to 9, read-out: log D OW values), the logD is at most 2.28. Further, in series [2] (pH 7, pH 7, read-out: Log D OW), the logD was 0.48. Besides, the logD in [2] (pH 9, pH 9, read-out: Log D OW) was at most -1.54. The “acute fish 50% lethal concentration (LC50)” value in the series on Cyprinus carpio is above 100 µg/mL. Also, the “16‐h LC50” value with Artemia salina was 98.4 mg MPA/L. In [3], the “pK a, carboxylic acid” value is listed as 4.58 and the “pK a, phenolic” value is recorded as 8.045. In addition, in the series with Anabaena flos-aquae (Anabaena flos-aquae), the ErC10 worked out at 155 µg/L; the LOEC turned out to be 284 µg/L; the “NOEC (both growth and yield)” value was determined as 83.9 µg MPA/L. For the same molecule, the EC50 with Anabaena flos-aquae (Dolichospermum flos-aquae, GMMC, read-out: ErC50) came to 0.423 µg/mL (≈ 1.32 µM). Also, in [4], the “antibiotic resistance risk quotient, highest MEC” value is on record as 0.0103; the “antibiotic resistance risk quotients, all mean‐ and low‐flow median ePiE PEC” value was at most 0.00033; the “antibiotic resistance risk quotients, all refined PEC‐per‐country” value is reported as at most 0.0083. Besides, in series [4] (highest STP effluent MEC 4.19 µg/L), the “antibiotic resistance risk quotient, STPs” value is listed as 0.065. In addition, the “antibiotic resistance risk quotient, STPs” value in series [4] (highest refined PECSTP 8.83 µg MPA/L) worked out at 0.138. Besides, the “antibiotic resistance risk quotients, surface waters, all PECs” value in series [4] (including Guadalquivir low‐flow 99th %ile ePiE PEC) is on record as at most 0.194. Also, in series [5], the “fraction phase‐I‐metabolized to 6‐O‐desmethyl‐MPA” value is “less than 1%” and the “terminal half‐life” value is reported as “approximately 18 h”.
